Experimental data from US12077503B2, “Substituted cyclic amides and their use as herbicides” (FMC CORPORATION, priority 2015, dated 2024).

How the values were obtained:
Format in all cases: in vivo
[1] = system: giant foxtail (Setaria faberii); assay: Test A preemergence; details: for Plant response rating, Foxtail, Giant: 125 g ai/ha, preemergence, 0 to 100 scale (0 no effect, 100 complete control)
How it was run: (§1)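 In a loam soil and sand blend, planted seeds got a preemergence directed soil spray, and young plants at the one- to two-leaf stage, 2–10 cm high, got a postemergence application; ~10 d greenhouse hold; injury rated visually, 0 = none, 100 = complete control.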

Kochia (Kochia scoparia) [2] = assay: Test A preemergence; details: for Plant response rating, Kochia: 125 g ai/ha, preemergence, 0 to 100 scale (0 no effect, 100 complete control)
How it was run: as §1

[3] = system: pigweed (Amaranthus retroflexus); assay: Test A preemergence; details: for Plant response rating, Pigweed: 125 g ai/ha, preemergence, 0 to 100 scale (0 no effect, 100 complete control)
[4] = system: ragweed (common ragweed, Ambrosia elatior); assay: Test A preemergence; details: for Plant response rating, Ragweed: 125 g ai/ha, preemergence, 0 to 100 scale (0 no effect, 100 complete control)
How it was run: as §1

[5] = system: ryegrass, Italian (Italian ryegrass, Lolium multiflorum); assay: Test A preemergence; details: for Plant response rating, Ryegrass, Italian: 125 g ai/ha, preemergence, 0 to 100 scale (0 no effect, 100 complete control)
How it was run: as §1

[6] = system: barnyardgrass (Echinochloa crus-galli); assay: Test A preemergence; details: for Plant response rating, Barnyardgrass: 125 g ai/ha, preemergence, 0 to 100 scale (0 no effect, 100 complete control)
How it was run: as §1

[7] = system: giant foxtail (Setaria faberii); assay: Test A postemergence
How it was run: as §1

[8] = system: Galium (catchweed bedstraw, Galium aparine); assay: Test A postemergence
How it was run: as §1

Kochia (Kochia scoparia) [9] = assay: Test A postemergence
How it was run: as §1

[10] = system: pigweed (Amaranthus retroflexus); assay: Test A postemergence
How it was run: as §1

[11] = system: wheat (Triticum aestivum); assay: Test A postemergence
How it was run: as §1

[12] = system: ragweed (common ragweed, Ambrosia elatior); assay: Test A postemergence
How it was run: as §1

[13] = system: blackgrass (Alopecurus myosuroides); assay: Test A postemergence
How it was run: as §1

corn (Zea mays) = assay: Test A postemergence
How it was run: as §1

[14] = system: ryegrass, Italian (Italian ryegrass, Lolium multiflorum); assay: Test A postemergence
How it was run: as §1

[15] = system: barnyardgrass (Echinochloa crus-galli); assay: Test A postemergence
How it was run: as §1

rice (Oryra sativa) = assay: Test B flooded paddy test; details: Flood, 250 g ai/ha; 0 to 100 scale where 0 is no effect and 100 is complete control; 13 to 15 d
How it was run: (§2)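 Flooding to 3 cm over soil accompanied treatment, which consisted of adding compound to the standing water around 2-leaf plants; depth was then maintained. Visual assessment versus controls followed at 13 to 15 d (scale 0–100, 0 meaning no effect).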

[16] = system: sedge, umbrella (small-flower umbrella sedge, Cyperus difformis); assay: Test B flooded paddy test; details: Flood, 250 g ai/ha; 0 to 100 scale where 0 is no effect and 100 is complete control; 13 to 15 d
How it was run: as §2

[17] = system: ducksalad (Heteranthera limosa); assay: Test B flooded paddy test; details: Flood, 250 g ai/ha; 0 to 100 scale where 0 is no effect and 100 is complete control; 13 to 15 d
How it was run: as §2

[18] = system: barnyardgrass (Echinochloa crus-galli); assay: Test B flooded paddy test; details: Flood, 250 g ai/ha; 0 to 100 scale where 0 is no effect and 100 is complete control; 13 to 15 d
How it was run: as §2

[19] = Preemergence, 500 g ai/ha, 0 is no effect, 100 is complete control
[20] = 500 g ai/ha, postemergence, 0 to 100 scale, 0 no effect, 100 complete control
[21] = Postemergence, 125 g ai/ha, visual injury, 0 to 100 scale (0 no effect, 100 complete control), approx. 10 d
[22] = Preemergence, 500 g ai/ha, visual injury approx. 10 d
[23] = 125 g ai/ha, postemergence, visual injury rating on 0 to 100 scale (0 no effect, 100 complete control), approx. 10 d

| SMILES | Plant response rating, Foxtail, Giant [1] | Plant response rating, Kochia (Kochia (Kochia scoparia) [2]) | Plant response rating, Pigweed [3] | Plant response rating, Ragweed [4] | Plant response rating, Ryegrass, Italian [5] | Plant response rating, Barnyardgrass [6] | Plant response rating, Foxtail, Giant [7, 20] | Plant response rating, Galium [8, 20] | Plant response rating, Kochia (Kochia (Kochia scoparia) [9]; [20]) | Plant response rating, Pigweed [10, 20] | Plant response rating, Wheat [11, 20] | Plant response rating, Ragweed [12, 20] | Plant response rating, Blackgrass [13, 20] | Plant response rating, Corn (corn (Zea mays); [20]) | Plant response rating, Ryegrass, Italian [14, 20] | Plant response rating, Barnyardgrass [15, 20] | Plant response rating, Rice (rice (Oryra sativa)) | Plant response rating, Sedge, Umbrella [16] | Plant response rating, Ducksalad [17] | Plant response rating, Barnyardgrass [18] | also measured |
| --- | --- | --- | --- | --- | --- | --- | --- | --- | --- | --- | --- | --- | --- | --- | --- | --- | --- | --- | --- | --- | --- |
| O=C1NCC(c2ccccc2-c2ccccc2)C1C(=O)Nc1ccccc1F (racemic) [Compound 381] | 0 | 0 | 0 | 0 | 0 | 0 | 20 | 0 | 0 | 0 | 0 | 0 | 0 | 0 | 0 | 30 | 0 | 0 | 0 | 0 | Foxtail, Giant plant response rating (0 to 100 scale) [1, 19]: 30; Kochia plant response rating (0 to 100 scale) (Kochia (Kochia scoparia) [2]; [19]): 0; Pigweed plant response rating (0 to 100 scale) [3, 19]: 0; Ragweed plant response rating (0 to 100 scale) [4, 19]: 0; Ryegrass, Italian plant response rating (0 to 100 scale) [5, 19]: 0; Barnyardgrass plant response rating (0 to 100 scale) [6, 19]: 20; Plant response rating, Foxtail, Giant [7, 21]: 0; Plant response rating, Galium [8, 21]: 0; Plant response rating, Kochia (Kochia (Kochia scoparia) [9]; [21]): 0; Plant response rating, Pigweed [10, 21]: 0; Plant response rating, Wheat [11, 21]: 0; Plant response rating, Ragweed [12, 21]: 0; Plant response rating, Blackgrass [13, 21]: 0; Plant response rating, Corn (corn (Zea mays); [21]): 0; Plant response rating, Ryegrass, Italian [14, 21]: 0; Plant response rating, Barnyardgrass [15, 21]: 0 |
| CN1CC(c2ccc(F)cc2)C(C(=O)Nc2ccccc2F)C1=O (stereo not drawn) [Compound 437] | 90 | 60 | 20 | 0 | 0 | 90 | 90 | 50 | 30 | 20 | 40 | 0 | 30 | 20 | 20 | 90 | 0 | 0 | 100 | 65 | Foxtail, Giant plant response rating (0 to 100 scale, 0 is no effect, 100 is complete control) [1, 22]: 100; Kochia plant response rating (0 to 100 scale, 0 is no effect, 100 is complete control) (Kochia (Kochia scoparia) [2]; [22]): 70; Pigweed plant response rating (0 to 100 scale, 0 is no effect, 100 is complete control) [3, 22]: 80; Ragweed plant response rating (0 to 100 scale, 0 is no effect, 100 is complete control) [4, 22]: 60; Ryegrass, Italian plant response rating (0 to 100 scale, 0 is no effect, 100 is complete control) [5, 22]: 50; Barnyardgrass plant response rating (0 to 100 scale, 0 is no effect, 100 is complete control) [6, 22]: 90; Foxtail, Giant plant response rating [7, 23]: 90; Galium plant response rating [8, 23]: 30; Kochia plant response rating (Kochia (Kochia scoparia) [9]; [23]): 20; Pigweed plant response rating [10, 23]: 0; Wheat plant response rating [11, 23]: 0; Ragweed plant response rating [12, 23]: 0; Blackgrass plant response rating [13, 23]: 0; Corn plant response rating (corn (Zea mays); [23]): 0; Ryegrass, Italian plant response rating [14, 23]: 0; Barnyardgrass plant response rating [15, 23]: 90 |
